Measurements: PubChem BioAssay (NCI)
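Values below derive from 48-hour exposures of cells grown in 96-well plates, with endpoints linearly interpolated between the two concentrations bracketing the appropriate inhibition level. Here, GI50 denotes the concentration required for 50% inhibition of growth. The concentration for full growth arrest is given as TGI.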

Assays:
Assay in all cases: DTP human tumour cell line panel, 48 h
SF-539 CNS = tested on: SF-539 CNS
SNB-75 CNS = tested on: SNB-75 CNS
A498 renal = tested on: A498 renal
HCT-116 colon = tested on: HCT-116 colon
TK-10 renal = tested on: TK-10 renal
MDA-MB-435 = tested on: MDA-MB-435
MOLT-4 leukemia = tested on: MOLT-4 leukemia
SK-OV-3 ovarian = tested on: SK-OV-3 ovarian
PC-3 prostate = tested on: PC-3 prostate
HS 578T breast = tested on: HS 578T breast

| SMILES | TGI (SF-539 CNS) [µM] | TGI (SNB-75 CNS) [µM] | TGI (A498 renal) [µM] | TGI (HCT-116 colon) [µM] | TGI (TK-10 renal) [µM] | TGI (MDA-MB-435) [µM] | TGI (MOLT-4 leukemia) [µM] | TGI (SK-OV-3 ovarian) [µM] | TGI (PC-3 prostate) [µM] | TGI (HS 578T breast) [µM] | GI50 (SF-539 CNS) [µM] | GI50 (SNB-75 CNS) [µM] | GI50 (A498 renal) [µM] | GI50 (HCT-116 colon) [µM] | GI50 (TK-10 renal) [µM] | GI50 (MDA-MB-435) [µM] | GI50 (MOLT-4 leukemia) [µM] | GI50 (SK-OV-3 ovarian) [µM] | GI50 (PC-3 prostate) [µM] | GI50 (HS 578T breast) [µM] |
| --- | --- | --- | --- | --- | --- | --- | --- | --- | --- | --- | --- | --- | --- | --- | --- | --- | --- | --- | --- | --- |
| O=C(CC(=O)Nc1ccccc1Cl)NNC(Sc1ccccc1)c1cc(N=Nc2ccc(Br)cc2)ccc1O (stereo not given) | 3.8 | > 10 | 5.6 | 1.31 | 9.08 | > 10 | 1.75 | > 10 | 6.21 | 7.18 | – | – | – | – | – | – | – | – | – | – |
| COc1cnnc2c(C)c(-c3ccccc3)nn12 | > 100 | > 100 | > 100 | > 100 | > 100 | > 100 | > 100 | > 100 | > 100 | > 100 | – | – | – | – | – | – | – | – | – | – |
| COc1cc(C2c3cc4c(cc3OC(N3CCOCC3)C2C)OCO4)cc(OC)c1OC(C)=O (stereo not given) | 40.2 | 25.2 | 81.3 | 60.8 | > 100 | 14.4 | > 100 | > 100 | > 100 | 25.7 | – | – | – | – | – | – | – | – | – | – |
| C/C(=N\NC(=O)N/N=C(\C)c1ccccn1)c1ccccn1 | 3.04 | > 100 | > 100 | > 100 | – | > 100 | > 100 | > 100 | > 100 | > 100 | – | – | – | – | – | – | – | – | – | – |
| Cc1ccc(Nc2nc(NS(=O)(=O)c3cc(C)c(Cl)cc3S)n[nH]2)cc1 | > 100 | > 100 | > 100 | > 100 | > 100 | > 100 | > 100 | > 100 | > 100 | > 100 | – | – | – | – | – | – | – | – | – | – |
| C=C1[C@H](OCC(C)C)[C@@H](OC(=O)C(C)CC)[C@@H](O)C(C)(C)/C=C/[C@H](C)C(=O)[C@@]2(O)C[C@H](C)[C@H](O)[C@@H]2[C@H]1OC(=O)C(C)CC (stereo not given in full) | > 14.9 | > 18.7 | 12.2 | > 20 | > 19.3 | > 20 | > 10.3 | > 20 | > 14.8 | 10.6 | – | – | – | – | – | – | – | – | – | – |
| Clc1ccc(-c2nn3c(C45CC6CC(CC(C6)C4)C5)nnc3s2)cc1 | > 100 | > 100 | > 100 | > 100 | > 100 | > 100 | > 100 | > 100 | > 100 | > 100 | – | – | – | – | – | – | – | – | – | – |
| CC(C)(C)OC(=O)NCCNC(=O)CN(CC(=O)O)C1CCCCC1N(CC(=O)O)CC(=O)O (stereo not given) | > 100 | > 100 | > 100 | > 100 | > 100 | > 100 | > 100 | > 100 | > 100 | > 100 | – | – | – | – | – | – | – | – | – | – |
| Cc1nc(N)nc(N)c1N1CCN(Cc2ccccc2)CC1 | > 100 | > 100 | > 100 | > 100 | > 100 | > 100 | > 100 | > 100 | > 100 | > 100 | – | – | – | – | – | – | – | – | – | – |
| COc1cccc(/C=N/n2c(Cc3ccc(Cl)cc3)n[nH]c2=O)c1 | 32.6 | 25.3 | > 100 | > 100 | > 100 | > 100 | > 100 | 81.9 | > 100 | 72.7 | – | – | – | – | – | – | – | – | – | – |
| COC1CCC(n2c([C@@H]3CCCC(=O)N3c3ccc(F)c(F)c3)nc3cc(-c4c(C)noc4C)ccc32)CC1 (stereo not given in full) | 23 | 0.961 | 20 | 22.4 | 12.7 | 82.7 | 72.2 | 18.8 | 44.1 | 9.86 | 9.79 | 0.0108 | 5.99 | 10 | 2.46 | 8.01 | 16.9 | 4.09 | 3.5 | 2.1 |
| CC(C)=CCC/C(C)=C/CC/C(C)=C/CSc1ccc(Cl)cc1C(=O)O | 36.4 | 34.3 | 38.7 | 31.6 | 37.6 | 42.2 | 49.9 | 31.1 | 29.7 | 49.7 | – | – | – | – | – | – | – | – | – | – |
| Cc1ccsc1/C=N/Nc1ccccn1 | – | > 100 | > 100 | > 100 | > 100 | > 100 | 73.9 | > 100 | > 100 | > 100 | – | – | – | – | – | – | – | – | – | – |
| Cc1nc2ccccc2cc1C[N+]12CN3CN(CN(C3)C1)C2 | 64.5 | 35.6 | 47.8 | 33.2 | 63.4 | 49.3 | > 100 | 98.9 | 34.3 | > 100 | – | – | – | – | – | – | – | – | – | – |
| CC(C)C[C@H](NC(=O)[C@H](CCc1ccccc1)NC(=O)c1ccc2ccccc2n1)B(O)O | < 0.0225 | 0.175 | 4.38 | 0.0595 | 0.407 | < 0.0123 | 4.76 | 10.2 | 1.19 | 0.442 | – | – | – | – | – | – | – | – | – | – |
| O=Cc1cc(O)c(O)c(/C=N/n2c3ccccc3c3ccccc32)c1 | 24.7 | 9.76 | 49.8 | 31.2 | 82 | 28.3 | 12.5 | 21.1 | 28.7 | > 100 | – | – | – | – | – | – | – | – | – | – |

| SMILES | TGI (SF-539 CNS) [µM] | TGI (SNB-75 CNS) [µM] | TGI (A498 renal) [µM] | TGI (HCT-116 colon) [µM] | TGI (TK-10 renal) [µM] | TGI (MDA-MB-435) [µM] | TGI (MOLT-4 leukemia) [µM] | TGI (SK-OV-3 ovarian) [µM] | TGI (PC-3 prostate) [µM] | TGI (HS 578T breast) [µM] | GI50 (SF-539 CNS) [µM] | GI50 (SNB-75 CNS) [µM] | GI50 (A498 renal) [µM] | GI50 (HCT-116 colon) [µM] | GI50 (TK-10 renal) [µM] | GI50 (MDA-MB-435) [µM] | GI50 (MOLT-4 leukemia) [µM] | GI50 (SK-OV-3 ovarian) [µM] | GI50 (PC-3 prostate) [µM] | GI50 (HS 578T breast) [µM] |
| --- | --- | --- | --- | --- | --- | --- | --- | --- | --- | --- | --- | --- | --- | --- | --- | --- | --- | --- | --- | --- |
| CCOC(=O)c1ccc(NC(NC(=O)CC)(C(F)(F)F)C(F)(F)F)cc1 | > 100 | > 100 | > 100 | > 100 | > 100 | > 100 | > 100 | > 100 | > 100 | > 100 | – | – | – | – | – | – | – | – | – | – |
| O=[N+]([O-])c1cc(Cl)ccc1S(=O)(=O)c1cc(Cl)cc2c1NCCC2 | > 100 | > 100 | > 100 | > 100 | > 100 | > 100 | > 100 | > 100 | > 100 | > 100 | – | – | – | – | – | – | – | – | – | – |
| CC(C)(C)OC(=O)N1C/C=C\C(=O)C2(OCCO2)c2ccccc21 | 50.3 | 99.2 | > 100 | 34.9 | 47.3 | 34 | 76.5 | 99.2 | > 100 | > 100 | – | – | – | – | – | – | – | – | – | – |
| CCOC(=O)C1=CN(C(=O)c2ccccc2)CCC1Cc1ccccc1 (stereo not given) | 63.6 | 70.3 | 39.4 | 84.4 | 75.3 | 51 | 38.5 | > 100 | 78.1 | 92.8 | – | – | – | – | – | – | – | – | – | – |
| O=C(CCC(=O)OCC1OC(O)(CC2OC(CO)C(O)C(O)C2O)C(O)C1O)OCc1ccccc1 (stereo not given) | > 100 | > 100 | > 100 | > 100 | > 100 | > 100 | – | > 100 | > 100 | > 100 | – | – | – | – | – | – | – | – | – | – |
| c1csc(-c2nnc(C34CC5CC(CC(C5)C3)C4)o2)c1 | 40.1 | 75.8 | 43.9 | > 100 | > 100 | > 100 | 60 | > 100 | > 100 | 74.6 | – | – | – | – | – | – | – | – | – | – |
| CN1CCN(c2c(O)c3c(c(O)c2Cl)C(=O)C=CC3=O)CC1 | 2.32 | 3.56 | 4.54 | 0.51 | 1.58 | 0.538 | – | 8.34 | 3.27 | 5.45 | – | – | – | – | – | – | – | – | – | – |
| CCCC1C(C#N)(C#N)C(C#N)=C(N)C1(C)C(C)=O (stereo not given) | > 100 | 96.9 | > 100 | > 100 | > 100 | > 100 | > 100 | > 100 | > 100 | > 100 | – | – | – | – | – | – | – | – | – | – |
| CN(C)/C=N/S(=O)(=O)c1nn2c(C=O)c(-c3cc4ccccc4oc3=O)nc2s1 | 61 | > 82.1 | 55.3 | 5.89 | 14.8 | 62.4 | > 20.6 | > 100 | > 48.5 | > 27 | – | – | – | – | – | – | – | – | – | – |
| Cc1ccnc2sc3ccccc3c(=O)c12 | > 100 | 63.2 | > 100 | > 100 | 90.6 | > 100 | 79.2 | > 100 | > 100 | 77.6 | – | – | – | – | – | – | – | – | – | – |
| CSc1nc(=O)c(C#N)c(-c2ccccc2)n1C1OC(COC(C)=O)C(OC(C)=O)C(OC(C)=O)C1OC(C)=O (stereo not given) | > 100 | > 100 | > 100 | > 100 | > 100 | > 100 | > 100 | > 100 | > 100 | > 100 | – | – | – | – | – | – | – | – | – | – |
| CC(C)C(/C=C/c1ccccc1)=N\NC(=S)NN | > 100 | > 100 | > 100 | > 100 | > 100 | > 100 | > 100 | > 100 | > 100 | > 100 | – | – | – | – | – | – | – | – | – | – |
| CN(/N=C/c1ccc(Cl)c(Cl)c1)C1=NCCN1 | 40.4 | > 100 | 28.1 | 39.1 | > 100 | 44.6 | 59.8 | 81.8 | 38.3 | > 100 | – | – | – | – | – | – | – | – | – | – |
| CC(C)(CN1CCCCC1)C(=O)/C=C/c1c(Cl)cccc1Cl | 6.71 | 2.38 | 4.96 | 2.02 | 1.77 | 2.85 | – | 8.47 | 3.46 | 8.8 | – | – | – | – | – | – | – | – | – | – |
| COC1=CCC2=C(CCN(C(=O)C3CCC3)C2Cc2ccc(OC)c(O)c2)C1 (stereo not given) | > 100 | 35.9 | 84.5 | 48.6 | 64.5 | 10.5 | > 100 | 83.5 | > 100 | 66.6 | – | – | – | – | – | – | – | – | – | – |
